Reference: patent US8329904B2, “Azacyclic derivatives” (Hoffmann-La Roche Inc., priority 2009, dated 2012)

biological target: T1, human HSL (Homo sapiens, UniProt Q05469); assay: Human Hormone-Sensitive Lipase (HSL) Enzyme Inhibition Assay; assay type: biochemical; details: colorimetric assay, 2,3-dimercapto-1-propanol tributyrate (DMPT) substrate, 37° C. for 20 minutes, absorbance at 405 nm; read-out: HSL hum IC50
T1 construct: overlapping PCR to generate a full length human HSL ORF with a 3′-His6 tag; His6 (C); made in house; host or cells: High 5 insect cells (baculovirus, pFast-BAC)
T1 sequence (Q05469 1-1076): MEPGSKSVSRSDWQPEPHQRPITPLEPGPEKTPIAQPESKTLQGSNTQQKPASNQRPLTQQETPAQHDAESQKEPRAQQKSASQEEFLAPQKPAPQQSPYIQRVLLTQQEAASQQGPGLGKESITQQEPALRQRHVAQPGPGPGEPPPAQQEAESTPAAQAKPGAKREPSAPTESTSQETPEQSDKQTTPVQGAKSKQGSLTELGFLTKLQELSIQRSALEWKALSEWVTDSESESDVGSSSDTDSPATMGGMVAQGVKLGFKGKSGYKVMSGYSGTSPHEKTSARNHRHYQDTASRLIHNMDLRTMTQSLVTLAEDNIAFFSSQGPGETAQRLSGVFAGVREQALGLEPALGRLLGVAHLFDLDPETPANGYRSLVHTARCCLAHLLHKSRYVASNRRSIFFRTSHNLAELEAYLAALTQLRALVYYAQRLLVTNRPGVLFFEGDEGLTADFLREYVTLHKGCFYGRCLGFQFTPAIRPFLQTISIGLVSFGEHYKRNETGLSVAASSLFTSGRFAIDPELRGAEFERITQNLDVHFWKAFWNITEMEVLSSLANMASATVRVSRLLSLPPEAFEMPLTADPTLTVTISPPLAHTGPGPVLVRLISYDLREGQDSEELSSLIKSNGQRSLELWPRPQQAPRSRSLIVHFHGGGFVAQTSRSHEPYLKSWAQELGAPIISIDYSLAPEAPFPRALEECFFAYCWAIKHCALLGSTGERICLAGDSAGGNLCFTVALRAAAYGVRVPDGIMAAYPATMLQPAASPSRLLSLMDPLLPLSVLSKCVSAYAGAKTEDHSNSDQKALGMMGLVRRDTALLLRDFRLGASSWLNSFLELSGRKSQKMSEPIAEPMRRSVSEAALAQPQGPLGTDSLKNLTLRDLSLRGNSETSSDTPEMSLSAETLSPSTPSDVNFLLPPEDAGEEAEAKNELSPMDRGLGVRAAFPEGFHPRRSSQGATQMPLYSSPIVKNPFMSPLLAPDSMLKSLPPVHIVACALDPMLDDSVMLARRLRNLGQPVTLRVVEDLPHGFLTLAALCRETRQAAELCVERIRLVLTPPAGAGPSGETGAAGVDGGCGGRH
Method: Production of Human Full Length Hormone Sensitive Lipase-His^6
1) Cloning: cDNA was prepared from commercial human brain polyA-+ RNA and used as a template in overlapping PCR to generate a full length human HSL ORF with a 3′-His6 tag. This full length insert was cloned into the pFast-BAC vector and the DNA-sequence of several single clones was verified. DNA from a correct full length clone with the 3′His6 tag was used to transform the E. coli strain DH10BAC. Resulting bacmid DNA was used to generate a titered baculovirus stock for protein generation.
Cells were thawed. […] was done at 3×30 sec., Lubrol PX was added to 0.2% final concentration followed by stirring for 15 min. at 4° C. and centrifugation at 25 k×g, 60 min., 4° C. […] Supernatant was removed, the resin washed in the centrifuge vessel using 5 volumes of Base Buffer containing 0.2% Lubrol PX. Centrifugation was done again, then the supernatant discarded. The resin wass poured onto a 0.8 μm membrane in a disposable filter unit (Nalge 450-0080), and washed with 5 volumes of Base Buffer containing 0.2% Lubrol PX. It was then washed with 30 volumes of Base Buffer containing 60 mM imidazole pH 7.5 at 4° C. The protein was eluated with 5 volumes of 25 mM Tris-Cl, 300 mM NaCl, 200 mM imidazole, 10 mM 2-mercaptoethanol, pH 7.5 at 4° C. by tumbling resin with buffer end-over-end, 30 min., 4° C. The resin was captured on a 0.2 μm membrane disposable filter unit (Millipore SCGP U02 RE) and the eluate collected in the reservoir. The eluate was concentrated using a 30 k MWCO centrifugal filter device (Sartorius Vivascience Vivacell 100, VC1022), to 20 ml. It was then dialyzed overnight at 4° C., two times against 2 L of 10% glycerol, 25 mM Tris-Cl, 300 mM NaCl, 0.2 mM EDTA, 0.2 mM DTT, pH 7.5 at 4° C. The protein was filtered using a 0.22 μm disposable filter unit (Millipore SCGP00525). The protein concentration was calculated from absorbance at 280 nm, using 280=0.67 cm-1 mg-1. […] The protein was stored at −80° C.
Human Hormone-Sensitive Lipase (HSL) Enzyme Inhibition Assay:
HSL enzyme activity was measured by a colorimetric assay using 2,3-dimercapto-1-propanol tributyrate (Aldrich, St. Louis, Mo.) as a substrate. Typically, 1.5 mM 2,3-dimercapto-1-propanol tributyrate (DMPT) in 100 mM MOPS, pH 7.2, 0.2 mg/ml fatty acid-free BSA was prepared by sonication at 4° C. to homogenous suspension. Test compounds (2 mM stock in DMSO) were diluted 3 fold in series in DMSO. Compound solutions were diluted 24 fold in 1.5 mM DMPT containing solution and 18 ul per well was added to 384-well microplates (Corning Costar). Twelve microliters per well of human HSL (15 ug/ml) was added and the reaction mixture was incubated at 37° C. for 20 minutes. Six microliters of 12 mM dithio-bis-(2-nitrobenzoic acid) (DTNB) in DMSO plus 1.2% SDS and 0.6% Triton X-100 were added and the mixture was incubated at room temperature for 15 minutes. Product production was monitored by reading absorbance at 405 nm on an Envision Reader (PerkinElmer Life and Analytical Sciences, Shelton, Conn.).

Row | Structure (SMILES) | IC50 [nM]
1 | CC(Oc1ccc(N2CCC3(CCN(S(=O)(=O)c4ccccc4)CC3)C2=O)cc1)C(F)(F)F (racemic) [Example 4, (rac)-8-Benzenesulfonyl-2-[4-(2,2,2-trifluoro-1-methyl-ethoxy)-phenyl]-2,8-diaza-piro[4.5]decan-1-one] | 20
2 | CC(Oc1ccc(N2CCC3(CCN(S(=O)(=O)CC(C)(C)C)CC3)C2=O)cc1)C(F)(F)F (racemic) [Example 22, (rac)-8-(2,2-Dimethyl-propane-1-sulfonyl)-2-[4-(2,2,2-trifluoro-1-methyl-ethoxy)-phenyl]-2,8-diaza-spiro[4.5]decan-1-one] | 130
3 | CC(Oc1ccc(N2CCC3(CCN(S(=O)(=O)c4ccccc4)CC3)C2=O)cn1)C(F)(F)F (racemic) [Example 25, (rac)-8-Benzenesulfonyl-2-[6-(2,2,2-trifluoro-1-methyl-ethoxy)-pyridin-3-yl]-2,8-diaza-spiro[4.5]decan-1-one] | 50
4 | CC(Oc1ccc(N2CCC3(CCN(S(=O)(=O)c4ccccc4Cl)CC3)C2=O)cn1)C(F)(F)F (racemic) [Example 114, 8-(2-Chloro-benzenesulfonyl)-2-[6-(2,2,2-trifluoro-1-methyl-ethoxy)-pyridin-3-yl]-2,8-diaza-spiro[4.5]decan-1-one (rac)] | 50
5 | Cc1noc(C)c1S(=O)(=O)N1CCC2(CCN(c3ccc(C(O)C(F)(F)F)cc3)C2=O)CC1 (racemic) [Example 162, (rac)-8-(3,5-Dimethyl-isoxazole-4-sulfonyl)-2-[4-(2,2,2-trifluoro-1-hydroxy-ethyl)-phenyl]-2,8-diaza-spiro[4.5]decan-1-one] | 120
6 | O=C1N(c2ccc(C(O)C(F)F)cc2)CCC12CCN(S(=O)(=O)c1ccccc1C(F)(F)F)CC2 (racemic) [Example 176, (rac)-2-(4-(2,2-difluoro-1-hydroxyethyl)phenyl)-8-(2-(trifluoromethyl)phenylsulfonyl)-2,8-diazaspiro[4.5]decan-1-one] | 40
7 | O=C1N(c2ccc(OC(F)(F)F)cc2)CCC12CCN(S(=O)(=O)c1ccccc1Cl)CC2 [Example 1, 8-(2-Chloro-benzenesulfonyl)-2-(4-trifluoromethoxy-phenyl)-2,8-diaza-spiro[4.5]decan-1-one] | 30
8 | O=C1N(c2ccc(OC(F)(F)F)cc2)CCC12CCN(S(=O)(=O)c1ccccc1)CC2 [Example 2, 8-Benzenesulfonyl-2-(4-trifluoromethoxy-phenyl)-2,8-diaza-spiro[4.5]decan-1-one] | 40
9 | CC(C)(C)c1ccc(N2CCC3(CCN(S(=O)(=O)c4ccccc4)CC3)C2=O)cc1 [Example 3, 8-Benzenesulfonyl-2-(4-tert-butyl-phenyl)-2,8-diaza-spiro[4.5]decan-1-one] | 30
10 | CC(C)(Oc1ccc(N2CCC3(CCN(S(=O)(=O)c4ccccc4)CC3)C2=O)cc1)C(F)(F)F [Example 5, 8-Benzenesulfonyl-2-[4-(2,2,2-trifluoro-1,1-dimethyl-ethoxy)-phenyl]-2,8-diaza-spiro[4.5]decan-1-one] | 40
11 | CC(C)Oc1ccc(N2CCC3(CCN(S(=O)(=O)c4ccccc4)CC3)C2=O)cc1 [Example 6, 8-Benzenesulfonyl-2-(4-isopropoxy-phenyl)-2,8-diaza-spiro[4.5]decan-1-one] | 40
12 | CC(C)(C)CC(=O)N1CCC2(CC1)CCN(c1ccc(OC(F)(F)F)cc1)C2=O [Example 7, 8-(3,3-Dimethyl-butyryl)-2-(4-trifluoromethoxy-phenyl)-2,8-diaza-spiro[4.5]decan-1-one] | 60
13 | O=C1N(c2ccc(OC(F)(F)F)cc2)CCC12CCN(S(=O)(=O)N1CCOCC1)CC2 [Example 8, 8-(Morpholine-4-sulfonyl)-2-(4-trifluoromethoxy-phenyl)-2,8-diaza-spiro[4.5]decan-1-one] | 90
14 | O=C1N(c2ccc(OC(F)(F)F)cc2)CCCC12CCN(S(=O)(=O)c1ccccc1)CC2 [Example 9, 9-Benzenesulfonyl-2-(4-trifluoromethoxy-phenyl)-2,9-diaza-spiro[5.5]undecan-1-one] | 50
15 | CC(C)c1ccc(N2CCC3(CCN(S(=O)(=O)c4ccccc4)CC3)C2=O)cn1 [Example 10, 8-Benzenesulfonyl-2-(6-isopropyl-pyridin-3-yl)-2,8-diaza-spiro[4.5]decan-1-one] | 130
16 | O=C1N(c2ccc(Cl)nc2)CCC12CCN(S(=O)(=O)c1ccccc1)CC2 [Example 11, 8-Benzenesulfonyl-2-(6-chloro-pyridin-3-yl)-2,8-diaza-spiro[4.5]decan-1-one] | 1700
17 | O=C1N(c2cccnc2)CCC12CCN(S(=O)(=O)c1ccccc1)CC2 [Example 12, 8-Benzenesulfonyl-2-pyridin-3-yl-2,8-diaza-spiro[4.5]decan-1-one] | 26000
18 | O=C(CCC1CC1)N1CCC2(CC1)CCN(c1ccc(OC(F)(F)F)cc1)C2=O [Example 13, 8-(3-Cyclopropyl-propionyl)-2-(4-trifluoromethoxy-phenyl)-2,8-diaza-spiro[4.5]decan-1-one] | 150
19 | CC(C)(C)CCC(=O)N1CCC2(CC1)CCN(c1ccc(OC(F)(F)F)cc1)C2=O [Example 14, 8-(4,4-Dimethyl-pentanoyl)-2-(4-trifluoromethoxy-phenyl)-2,8-diaza-spiro[4.5]decan-1-one] | 170
20 | CC(C)Oc1ccc(N2CCC3(CCN(S(=O)(=O)N4CCOCC4)CC3)C2=O)cc1 [Example 15, 2-(4-Isopropoxy-phenyl)-8-(morpholine-4-sulfonyl)-2,8-diaza-spiro[4.5]decan-1-one] | 360
21 | COc1ccc(N2CCC3(CCN(S(=O)(=O)c4ccccc4)CC3)C2=O)nn1 [Example 16, 8-Benzenesulfonyl-2-(6-methoxy-pyridazin-3-yl)-2,8-diaza-spiro[4.5]decan-1-one] | 15000
22 | CCc1ccc(N2CCC3(CCN(S(=O)(=O)c4ccccc4Cl)CC3)C2=O)cc1 [Example 17, 8-(2-Chloro-benzenesulfonyl)-2-(4-ethyl-phenyl)-2,8-diaza-spiro[4.5]decan-1-one] | 30
23 | CC(C)CS(=O)(=O)N1CCC2(CCN(c3ccc(OC(F)(F)F)cc3)C2=O)CC1 [Example 18, 8-(2-Methyl-propane-1-sulfonyl)-2-(4-trifluoromethoxy-phenyl)-2,8-diaza-spiro[4.5]decan-1-one] | 80
